# PMC5834214 (PLoS Pathogens, 2018)
# pIC50: −log10 of the molar value. Read-outs that look alike come from different tables or passages of the source.
# How the values were obtained:
# rLASV/eGFP = test: microbe, parasite or virus in culture; assay type: cell-based, Lassa virus; details: Mammarenavirus lassaense, A549, 48 h, read-out: IC50 (LASV, eGFP expression)
# r3JUNV/eGFP = assay type: cell-based, Junín virus
# rVSV/eGFP = assay type: cell-based, vesicular stomatitis Indiana virus
# rLCMVΔGPC/eGFP = assay type: cell-based, lymphocytic choriomeningitis virus
# rLCMV/eGFP [1] = assay type: cell-based, lymphocytic choriomeningitis virus
# scrLCMV/ZsG-P2A-NP = assay type: cell-based, lymphocytic choriomeningitis virus
# rLCMV/eGFP [2] = assay type: cell-based, lymphocytic choriomeningitis virus; remark: listed apart in the source
# rLCMV/eGFP [3] = assay type: cell-based, lymphocytic choriomeningitis virus; remark: listed apart in the source
# rLCMV/eGFP [4] = assay type: cell-based, lymphocytic choriomeningitis virus; remark: listed apart in the source
# in vitro [5] = details: human
# in vitro [6] = details: grivet
# rLCMV/eGFP [7] = test: microbe, parasite or virus in culture; details: Mammarenavirus choriomeningitidis, A549, 48 h; for pIC50: read-out: IC50 (anti-LCMV, eGFP expression)
# rLCMV/eGFP [8] = test: microbe, parasite or virus in culture; details: Mammarenavirus choriomeningitidis, Vero C1008, 48 h, read-out: IC50 (anti-LCMV, eGFP expression)
# LCMV Z-mediated budding = assay type: cell-based, lymphocytic choriomeningitis virus
# LASV Z-mediated budding = assay type: cell-based, Lassa virus
# LCMV NP (Strep-NP) = LCMV NP (Strep-NP) (Lymphocytic choriomeningitis virus, UniProt P09992)
# eGFP = eGFP (Aequorea victoria, UniProt P42212, F64L/H231L/S65T)
# Sequence of LCMV NP (Strep-NP) (P09992 whole entry): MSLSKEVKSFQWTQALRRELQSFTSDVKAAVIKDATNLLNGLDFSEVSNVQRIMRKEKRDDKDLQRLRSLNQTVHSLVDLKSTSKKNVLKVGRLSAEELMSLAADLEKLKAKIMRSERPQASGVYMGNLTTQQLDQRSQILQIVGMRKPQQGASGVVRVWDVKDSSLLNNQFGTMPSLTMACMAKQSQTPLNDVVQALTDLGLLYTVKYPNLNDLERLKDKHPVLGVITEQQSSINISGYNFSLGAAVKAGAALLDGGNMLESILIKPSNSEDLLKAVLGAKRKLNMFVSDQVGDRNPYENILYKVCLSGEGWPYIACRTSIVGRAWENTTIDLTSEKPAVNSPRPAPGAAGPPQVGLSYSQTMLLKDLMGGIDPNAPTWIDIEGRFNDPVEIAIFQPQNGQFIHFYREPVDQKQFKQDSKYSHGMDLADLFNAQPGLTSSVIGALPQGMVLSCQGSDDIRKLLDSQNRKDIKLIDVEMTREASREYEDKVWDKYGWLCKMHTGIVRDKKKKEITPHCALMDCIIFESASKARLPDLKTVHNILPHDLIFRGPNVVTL
Compound,pIC50 (rLASV/eGFP),JUNV multiplication (r3JUNV/eGFP),Multiplication of VSV (rVSV/eGFP),reporter eGFP expression (virus RNA synthesis) (rLCMVΔGPC/eGFP),cell entry of LCMV (rLCMV/eGFP [1]),number of eGFP+ cells (rLCMV/eGFP [1]),eGFP expression in infected cells (rLCMV/eGFP [3]),production of infectious LCMV progeny (rLCMV/eGFP [4]),CC50 (in vitro [5]) [nM],CC50 (in vitro [6]) [nM],pIC50 (rLCMV/eGFP [7]),pIC50 (rLCMV/eGFP [8]),other results
C[C@@H]1O[C@@H](O[C@H]2C[C@@H](O)[C@]3(CO)[C@H]4[C@H](O)C[C@]5(C)[C@@H](C6=CC(=O)OC6)CC[C@]5(O)[C@@H]4CC[C@]3(O)C2)[C@H](O)[C@H](O)[C@H]1O [ouabain],8.03,strongly suppressed JUNV multiplication,not significantly affected,did not affect reporter eGFP expression,neither ouabain nor rocaglamide inhibited cell entry of LCMV,reduced at all time-of-addition points compared to vehicle,strong dose-dependent inhibition of eGFP expression,reduced,28.9,70,8.24,7.74,assembly de novo of extracellular infectious virus (GP-incorporation efficiency) (scrLCMV/ZsG-P2A-NP): did not inhibit assembly de novo of extracellular infectious virus; assembly de novo of extracellular infectious virus (virus titers in TCS) (rLCMV/eGFP [2]): did not inhibit assembly de novo of extracellular infectious virus; eGFP expression intensity in infected cells (rLCMV/eGFP [3]): did not affect eGFP expression intensity; IC50 (rLCMV/eGFP [7]; read-out: IC50 as log10 (converted)): 5.79 nM
C[C@]12CC[C@H](O)C[C@H]1CC[C@@H]1[C@@H]2CC[C@]2(C)[C@@H](c3ccc(=O)oc3)CC[C@]12O [bufalin],8.78,strongly suppressed JUNV multiplication,–,–,–,–,–,–,16.4,73.8,8.73,7.90,–
COc1ccc([C@@]23Oc4cc(OC)cc(OC)c4[C@]2(O)[C@H](O)[C@H](C(=O)N(C)C)[C@H]3c2ccccc2)cc1 [rocaglamide],7.43,strongly suppressed JUNV multiplication,not significantly affected,reduced eGFP expression,neither ouabain nor rocaglamide inhibited cell entry of LCMV,negligible number of eGFP^+ cells,dose-dependent rocaglamide inhibition of eGFP expression,reduced,> 1000,100,8.02,8.01,LCMV Z budding efficiency (LCMV Z-mediated budding): caused a reduction; LASV Z budding efficiency (LASV Z-mediated budding): caused a reduction
SPTAN1,–,–,–,–,–,–,–,–,–,–,–,–,Spectral count NP Average (LCMV NP (Strep-NP)): 4; Spectral count NP Exp. 1 (LCMV NP (Strep-NP)): 4; Spectral count NP Exp. 2 (LCMV NP (Strep-NP)): 4; Spectral count eGFP Average (eGFP): 0; Spectral count eGFP Exp. 1 (eGFP): 0; Spectral count eGFP Exp. 2 (eGFP): 0
